From ChEMBL document CHEMBL4052689, “Discovery and optimization of 3-(4-aryl/heteroarylsulfonyl)piperazin-1-yl)-6-(piperidin-1-yl)pyridazines as novel, CNS penetrant pan-muscarinic antagonists” (Bioorg Med Chem Lett, 2017)
Activity calls are given as the source filed them. No cut-off for these calls is given here.

Columns and labels:
[1] = target: Muscarinic acetylcholine receptor M4 (Rattus norvegicus) (UniProt P08485); test: (§1) Antagonist activity at rat muscarinic M4 receptor by calcium mobilization assay; type: functional
[2] = target: Muscarinic acetylcholine receptor M5 (Homo sapiens, UniProt P08912); test: Antagonist activity at human recombinant muscarinic M5 receptor expressed in CHO cells co-transfected with Gqi5 in presence of EC80 acetylcholine by calcium mobilization assay; type: functional, cell-based
[3] = target: T1, Muscarinic acetylcholine receptor M4 (Homo sapiens, UniProt P08173); test: Displacement of [3H]NMS from human recombinant muscarinic M4 receptor expressed in CHO cell membranes
T1 sequence (P08173 whole entry): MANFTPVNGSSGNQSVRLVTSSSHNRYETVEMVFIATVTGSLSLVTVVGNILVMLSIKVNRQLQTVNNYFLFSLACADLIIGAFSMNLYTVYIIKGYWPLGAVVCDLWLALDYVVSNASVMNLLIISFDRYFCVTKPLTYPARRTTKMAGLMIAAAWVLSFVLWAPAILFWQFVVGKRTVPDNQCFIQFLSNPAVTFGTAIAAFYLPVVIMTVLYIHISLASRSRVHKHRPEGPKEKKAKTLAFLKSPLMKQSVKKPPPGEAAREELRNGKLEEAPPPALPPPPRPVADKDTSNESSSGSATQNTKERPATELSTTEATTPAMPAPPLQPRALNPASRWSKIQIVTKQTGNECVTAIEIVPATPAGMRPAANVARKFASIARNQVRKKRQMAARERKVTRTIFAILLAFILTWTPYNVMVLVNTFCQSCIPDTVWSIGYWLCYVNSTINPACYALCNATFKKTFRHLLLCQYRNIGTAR

Brain = test: Protein binding in rat brain homogenate assessed as unbound fraction; type: ADME, tissue-based
[4] = target: Muscarinic acetylcholine receptor M3 (Rattus norvegicus) (UniProt P08483); test: (§2) Antagonist activity at rat muscarinic M3 receptor by calcium mobilization assay; type: functional
Plasma [5] = test: Protein binding in human plasma assessed as unbound fraction; type: ADME, cell-free
[6] = target: T2, Muscarinic acetylcholine receptor M4 (Homo sapiens) (UniProt P08173); test: Antagonist activity at human recombinant muscarinic M4 receptor expressed in CHO cells co-transfected with Gqi5 assessed as acetylcholine-induced response in presence of EC80 acetylcholine by calcium mobilization assay relative to untreated control; type: functional, cell-based; design: scale not given: the % may be the effect or the level left
T2 sequence (whole entry): T1 sequence (P08173 whole entry)

[7] = target: Muscarinic acetylcholine receptor M2 (Rattus norvegicus) (UniProt P10980); test: (§3) Antagonist activity at rat muscarinic M2 receptor by calcium mobilization assay; type: functional
Plasma [8] = test: Protein binding in rat plasma assessed as unbound fraction; type: ADME, cell-free
[9] = Unbound brain-to-plasma concentration ratio in rat dosed as cassette dosing; type: ADME, organism-based
[10] = Brain to plasma permeability coefficient in rat dosed as cassette dosing; type: ADME, organism-based
[11] = target: Muscarinic acetylcholine receptor M5 (Rattus norvegicus) (UniProt P08911); test: Antagonist activity at rat muscarinic M5 receptor assessed as acetylcholine-induced response by calcium mobilization assay; type: functional; design: Activity: scale not given: the % may be the effect or the level left
[12] = target: Muscarinic acetylcholine receptor M5 (Homo sapiens) (UniProt P08912); test: Antagonist activity at human recombinant muscarinic M5 receptor expressed in CHO cells co-transfected with Gqi5 assessed as acetylcholine-induced response in presence of EC80 acetylcholine by calcium mobilization assay relative to untreated control; type: functional, cell-based; design: scale not given: the % may be the effect or the level left
[13] = target: T3, Muscarinic acetylcholine receptor M3 (Homo sapiens, UniProt P20309); test: Antagonist activity at human recombinant muscarinic M3 receptor expressed in CHO cells assessed as acetylcholine-induced response in presence of EC80 acetylcholine by calcium mobilization assay relative to untreated control; design: scale not given: the % may be the effect or the level left
Target sequence in this assay (P20309 whole entry, looked up): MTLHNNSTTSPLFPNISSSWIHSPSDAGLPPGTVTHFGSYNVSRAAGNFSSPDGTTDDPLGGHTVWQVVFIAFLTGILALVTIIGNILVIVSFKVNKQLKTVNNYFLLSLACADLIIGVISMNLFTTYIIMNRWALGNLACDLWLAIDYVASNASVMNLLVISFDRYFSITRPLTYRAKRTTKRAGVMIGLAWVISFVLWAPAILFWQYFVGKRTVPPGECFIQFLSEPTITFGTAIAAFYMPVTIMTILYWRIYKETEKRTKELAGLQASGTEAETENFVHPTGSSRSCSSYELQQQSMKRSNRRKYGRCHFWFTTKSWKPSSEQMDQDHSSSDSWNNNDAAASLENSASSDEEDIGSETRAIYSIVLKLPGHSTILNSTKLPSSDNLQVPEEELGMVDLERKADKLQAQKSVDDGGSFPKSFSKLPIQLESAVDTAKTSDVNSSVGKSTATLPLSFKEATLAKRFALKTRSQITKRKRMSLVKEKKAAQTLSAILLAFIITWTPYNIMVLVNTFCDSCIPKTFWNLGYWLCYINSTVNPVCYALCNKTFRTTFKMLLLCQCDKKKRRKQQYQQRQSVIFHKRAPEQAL

[14] = target: Muscarinic acetylcholine receptor M2 (Homo sapiens, UniProt P08172); test: Antagonist activity at human recombinant muscarinic M2 receptor expressed in CHO cells co-transfected with Gqi5 in presence of EC80 acetylcholine by calcium mobilization assay; type: functional, cell-based
[15] = target: Muscarinic acetylcholine receptor M1 (Homo sapiens) (UniProt P11229); test: Antagonist activity at human recombinant muscarinic M1 receptor expressed in CHO cells co-transfected with Gqi5 assessed as acetylcholine-induced response in presence of EC80 acetylcholine by calcium mobilization assay relative to untreated control; type: functional, cell-based; design: scale not given: the % may be the effect or the level left
[16] = target: T1, Muscarinic acetylcholine receptor M4; test: Antagonist activity at human recombinant muscarinic M4 receptor expressed in CHO cells co-transfected with Gqi5 in presence of EC80 acetylcholine by calcium mobilization assay; type: functional, cell-based
[17] = target: Muscarinic acetylcholine receptor M1 (Homo sapiens, UniProt P11229); test: Antagonist activity at human recombinant muscarinic M1 receptor expressed in CHO cells co-transfected with Gqi5 in presence of EC80 acetylcholine by calcium mobilization assay; type: functional, cell-based
[18] = target: Muscarinic acetylcholine receptor M2 (Homo sapiens) (UniProt P08172); test: Antagonist activity at human recombinant muscarinic M2 receptor expressed in CHO cells co-transfected with Gqi5 assessed as acetylcholine-induced response in presence of EC80 acetylcholine by calcium mobilization assay relative to untreated control; type: functional, cell-based; design: scale not given: the % may be the effect or the level left
[19] = target: T3, Muscarinic acetylcholine receptor M3; test: Antagonist activity at human recombinant muscarinic M3 receptor expressed in CHO cells co-transfected with Gqi5 in presence of EC80 acetylcholine by calcium mobilization assay; type: functional, cell-based
Target sequence in this assay (P20309 whole entry): as the sequence (P20309 whole entry, looked up) above

[20] = target: Muscarinic acetylcholine receptor M1 (Rattus norvegicus) (UniProt P08482); test: (§4) Antagonist activity at rat muscarinic M1 receptor by calcium mobilization assay; type: functional
[21] = target: Muscarinic acetylcholine receptor M2 (Rattus norvegicus) (UniProt P10980); test: Antagonist activity at rat muscarinic M2 receptor assessed as acetylcholine-induced response by calcium mobilization assay; type: functional; design: scale not given: the % may be the effect or the level left
Homo sapiens [22] = species: Homo sapiens; test: Selectivity index, ratio of IC50 for human recombinant muscarinic M5 receptor to IC50 for human recombinant muscarinic M4 receptor
[23] = target: Muscarinic acetylcholine receptor M1 (Rattus norvegicus) (UniProt P08482); test: Antagonist activity at rat muscarinic M1 receptor assessed as acetylcholine-induced response by calcium mobilization assay; type: functional; design: scale not given: the % may be the effect or the level left
Liver [24] = test: Drug metabolism in rat liver microsomes assessed as metabolite F formation in presence of NADPH by UV and mass spectrometry; type: ADME, microsome
[25] = target: Muscarinic acetylcholine receptor M4 (Rattus norvegicus, UniProt P08485); test: as §1; type: functional
[26] = target: Muscarinic acetylcholine receptor M3 (Rattus norvegicus, UniProt P08483); test: as §2; type: functional
Liver [27] = test: Drug metabolism in human liver microsomes in absence of NADPH by UV and mass spectrometry; type: ADME, microsome
[28] = target: Muscarinic acetylcholine receptor M2 and M4 (Homo sapiens) (UniProt P08173+P08172); test: Selectivity index, ratio of IC50 for human recombinant muscarinic M2 receptor to IC50 for human recombinant muscarinic M4 receptor
Plasma [29] = test: Protein binding in rat plasma; type: ADME, cell-free
Liver [30] = test: Drug metabolism in human liver microsomes assessed as metabolite C formation in presence of NADPH by UV and mass spectrometry; type: ADME, microsome
Liver [31] = test: Drug metabolism in human liver microsomes assessed as metabolite B formation in presence of NADPH by UV and mass spectrometry; type: ADME, microsome
[32] = target: Muscarinic acetylcholine receptor M2 (Rattus norvegicus, UniProt P10980); test: as §3; type: functional
Plasma [33] = test: Protein binding in human plasma; type: ADME, cell-free
Liver [34] = test: Drug metabolism in rat liver microsomes in absence of NADPH by UV and mass spectrometry; type: ADME, microsome
Homo sapiens [35] = species: Homo sapiens; test: Selectivity index, ratio of IC50 for human recombinant muscarinic M1 receptor to IC50 for human recombinant muscarinic M4 receptor
Liver [36] = test: Drug metabolism in human liver microsomes assessed as metabolite E formation in presence of NADPH by UV and mass spectrometry; type: ADME, microsome
[37] = target: Muscarinic acetylcholine receptor M5 (Rattus norvegicus, UniProt P08911); test: Antagonist activity at rat muscarinic M5 receptor by calcium mobilization assay; type: functional
Liver [38] = test: Drug metabolism in human liver microsomes assessed as metabolite F formation in presence of NADPH by UV and mass spectrometry; type: ADME, microsome
Homo sapiens [39] = species: Homo sapiens; test: Selectivity index, ratio of IC50 for human recombinant muscarinic M3 receptor to IC50 for human recombinant muscarinic M4 receptor
Liver [40] = test: Drug metabolism in human liver microsomes assessed as metabolite H formation in presence of NADPH by UV and mass spectrometry; type: ADME, microsome
Liver [41] = test: Drug metabolism in human liver microsomes assessed as metabolite A formation in presence of NADPH by UV and mass spectrometry; type: ADME, microsome
Liver [42] = test: Drug metabolism in human liver microsomes assessed as metabolite D formation in presence of NADPH by UV and mass spectrometry; type: ADME, microsome
Liver [43] = test: Drug metabolism in human liver microsomes assessed as metabolite G formation in presence of NADPH by UV and mass spectrometry; type: ADME, microsome
[44] = target: Muscarinic acetylcholine receptor M3 (Rattus norvegicus) (UniProt P08483); test: Antagonist activity at rat muscarinic M3 receptor assessed as acetylcholine-induced response by calcium mobilization assay; type: functional; design: scale not given: the % may be the effect or the level left
[45] = target: Muscarinic acetylcholine receptor M4 (Rattus norvegicus) (UniProt P08485); test: Antagonist activity at rat muscarinic M4 receptor assessed as acetylcholine-induced response by calcium mobilization assay; type: functional; design: scale not given: the % may be the effect or the level left
[46] = target: Muscarinic acetylcholine receptor M1 (Rattus norvegicus, UniProt P08482); test: as §4; type: functional

Chain of Muscarinic acetylcholine receptor M4 (Rattus norvegicus) (P08485 whole entry): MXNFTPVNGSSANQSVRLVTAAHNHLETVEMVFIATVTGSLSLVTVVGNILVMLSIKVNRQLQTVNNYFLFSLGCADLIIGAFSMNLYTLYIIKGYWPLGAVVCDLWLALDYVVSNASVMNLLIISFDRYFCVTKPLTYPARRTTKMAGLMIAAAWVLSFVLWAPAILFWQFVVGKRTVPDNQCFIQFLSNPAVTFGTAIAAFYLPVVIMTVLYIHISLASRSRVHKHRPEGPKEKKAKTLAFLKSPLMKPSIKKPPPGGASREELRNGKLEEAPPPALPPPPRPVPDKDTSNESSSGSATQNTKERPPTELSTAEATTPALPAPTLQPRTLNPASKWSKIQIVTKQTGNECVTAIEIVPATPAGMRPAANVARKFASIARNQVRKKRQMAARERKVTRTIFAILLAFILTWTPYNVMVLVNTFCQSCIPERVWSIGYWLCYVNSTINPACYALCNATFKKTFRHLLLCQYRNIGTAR
Chain of Muscarinic acetylcholine receptor M2 (Homo sapiens) (P08172 whole entry): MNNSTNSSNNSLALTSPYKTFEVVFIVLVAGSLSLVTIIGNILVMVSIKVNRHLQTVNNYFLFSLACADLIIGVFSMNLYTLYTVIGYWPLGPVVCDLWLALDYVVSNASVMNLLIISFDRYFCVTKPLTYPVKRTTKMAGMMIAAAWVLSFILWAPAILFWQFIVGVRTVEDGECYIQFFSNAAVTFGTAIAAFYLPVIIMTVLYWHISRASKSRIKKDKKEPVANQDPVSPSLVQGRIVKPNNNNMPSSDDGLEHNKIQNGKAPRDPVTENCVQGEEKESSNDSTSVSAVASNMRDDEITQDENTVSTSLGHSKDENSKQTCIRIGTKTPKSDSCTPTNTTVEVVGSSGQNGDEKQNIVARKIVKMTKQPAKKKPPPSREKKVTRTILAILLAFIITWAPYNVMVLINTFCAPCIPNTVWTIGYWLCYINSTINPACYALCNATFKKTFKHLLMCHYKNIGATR
Chain of Muscarinic acetylcholine receptor M2 (Homo sapiens, UniProt P08172) (P08172 whole entry): as above
Chain of Muscarinic acetylcholine receptor M5 (Rattus norvegicus) (P08911 whole entry): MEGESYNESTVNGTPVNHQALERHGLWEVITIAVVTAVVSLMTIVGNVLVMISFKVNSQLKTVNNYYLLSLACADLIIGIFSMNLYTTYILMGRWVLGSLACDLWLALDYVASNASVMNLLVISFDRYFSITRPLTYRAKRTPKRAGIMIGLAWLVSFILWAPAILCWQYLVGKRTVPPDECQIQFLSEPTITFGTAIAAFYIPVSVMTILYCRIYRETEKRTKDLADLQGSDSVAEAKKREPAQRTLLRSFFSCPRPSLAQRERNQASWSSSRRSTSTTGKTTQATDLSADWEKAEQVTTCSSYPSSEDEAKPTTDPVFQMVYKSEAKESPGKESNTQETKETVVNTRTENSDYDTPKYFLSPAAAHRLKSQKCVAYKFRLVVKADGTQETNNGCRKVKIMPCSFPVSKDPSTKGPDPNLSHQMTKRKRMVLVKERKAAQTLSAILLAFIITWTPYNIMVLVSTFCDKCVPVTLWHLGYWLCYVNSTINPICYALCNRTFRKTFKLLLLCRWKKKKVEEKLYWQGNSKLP
Chain of Muscarinic acetylcholine receptor M5 (Homo sapiens) (P08912 whole entry): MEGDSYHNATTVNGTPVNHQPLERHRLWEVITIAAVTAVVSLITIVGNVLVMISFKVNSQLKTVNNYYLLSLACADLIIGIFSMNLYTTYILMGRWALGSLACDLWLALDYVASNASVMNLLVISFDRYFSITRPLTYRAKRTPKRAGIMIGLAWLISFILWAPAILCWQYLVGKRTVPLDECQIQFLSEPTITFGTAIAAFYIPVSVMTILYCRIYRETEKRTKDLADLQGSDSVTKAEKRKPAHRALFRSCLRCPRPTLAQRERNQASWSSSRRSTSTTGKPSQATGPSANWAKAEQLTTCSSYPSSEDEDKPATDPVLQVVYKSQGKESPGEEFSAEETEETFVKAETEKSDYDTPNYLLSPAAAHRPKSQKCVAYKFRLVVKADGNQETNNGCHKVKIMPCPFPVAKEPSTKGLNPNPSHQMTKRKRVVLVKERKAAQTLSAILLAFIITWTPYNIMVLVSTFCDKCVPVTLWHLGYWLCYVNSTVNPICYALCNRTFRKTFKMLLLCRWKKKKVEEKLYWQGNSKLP
Chain of Muscarinic acetylcholine receptor M5 (Homo sapiens, UniProt P08912) (P08912 whole entry): as above
Chain of Muscarinic acetylcholine receptor M3 (Rattus norvegicus) (P08483 whole entry, looked up): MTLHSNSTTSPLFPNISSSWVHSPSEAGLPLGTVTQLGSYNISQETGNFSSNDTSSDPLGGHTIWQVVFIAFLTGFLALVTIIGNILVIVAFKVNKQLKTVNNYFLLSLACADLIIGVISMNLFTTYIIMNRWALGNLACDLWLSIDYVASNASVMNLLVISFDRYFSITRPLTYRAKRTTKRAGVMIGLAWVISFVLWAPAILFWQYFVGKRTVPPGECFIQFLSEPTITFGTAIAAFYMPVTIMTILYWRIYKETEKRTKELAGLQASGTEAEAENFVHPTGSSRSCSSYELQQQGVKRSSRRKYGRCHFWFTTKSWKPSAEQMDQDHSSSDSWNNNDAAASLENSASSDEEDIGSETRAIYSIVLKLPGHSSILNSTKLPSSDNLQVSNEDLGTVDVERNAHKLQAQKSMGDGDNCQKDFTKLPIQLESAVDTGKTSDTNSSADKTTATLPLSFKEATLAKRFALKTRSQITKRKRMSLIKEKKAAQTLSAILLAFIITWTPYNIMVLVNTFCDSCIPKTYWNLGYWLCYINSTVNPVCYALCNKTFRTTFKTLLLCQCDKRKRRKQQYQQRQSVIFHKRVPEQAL

Structure (SMILES): Cc1noc(C)c1S(=O)(=O)N1CCN(c2ccc(N3CCCC(C)(C)C3)nn2)CC1
- inhibition [1]: Active
- IC50 [2]: 1030 nM
- Ki [3]: 7.78 nM
- Fu (Brain): 0.04
- inhibition [4]: Active
- Fu (Plasma [5]): 0.08
- Activity [6]: 12%
- inhibition [7]: Active
- Fu (Plasma [8]): 0.07
- K(p,uu,brain) [9]: 1.1
- Kp [10]: 2.1
- inhibition [11]: Active
- Activity [12]: 43%
- Activity [13]: 55%
- IC50 [14]: 352 nM
- Activity [15]: 11%
- IC50 ([16]; read-out: IC50): 120 nM
- IC50 ([16]; read-out: pIC50 (converted)): 110 nM
- IC50 [17]: 288 nM
- Activity [18]: 17%
- IC50 [19]: 782 nM
- inhibition [20]: Active

Structure (SMILES): C[C@H]1CCCCN1c1ccc(N2CCN(S(=O)(=O)c3ccccc3Cl)CC2)nn1
- Activity [21]: 7.1%
- Ratio IC50 (Homo sapiens [22]): 2.7 to 16
- Activity [23]: 2.6%
- Drug metabolism (Liver [24]): Metabolite_Detected
- IC50 [25]: 1000 nM
- IC50 [2]: 6500 nM
- IC50 [26]: > 10000 nM
- Drug metabolism (Liver [27]): Metabolite_Notdetected
- Activity [6]: 4%
- Ratio IC50 [28]: 2.7 to 16
- PPB (Plasma [29]): Active
- Drug metabolism (Liver [30]): Metabolite_Detected
- Drug metabolism (Liver [31]): Metabolite_Detected
- IC50 [32]: 5900 nM
- PPB (Plasma [33]): Active
- Drug metabolism (Liver [34]): Metabolite_Notdetected
- Ratio IC50 (Homo sapiens [35]): 2.7 to 16
- Drug metabolism (Liver [36]): Metabolite_Detected
- Activity [11]: 37%
- Activity [12]: 3.1%
- IC50 [37]: > 10000 nM
- Activity [13]: 4.3%
- IC50 [14]: 1200 nM
- Drug metabolism (Liver [38]): Metabolite_Detected
- Activity [15]: 2.8%
- Ratio IC50 (Homo sapiens [39]): 2.7 to 16
- Drug metabolism (Liver [40]): Metabolite_Detected
- IC50 ([16]; read-out: IC50): 440 nM
- IC50 ([16]; read-out: pIC50 (converted)): 427 nM
- Drug metabolism (Liver [41]): Metabolite_Detected
- Drug metabolism (Liver [42]): Metabolite_Detected
- Drug metabolism (Liver [43]): Metabolite_Detected
- Activity [44]: 40%
- IC50 [17]: 1300 nM
- Activity [18]: 2.9%
- IC50 [19]: 7000 nM
- Activity [45]: 4.8%
- IC50 [46]: 1400 nM
